PubChem BioAssay (NCI)
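Growth conditions: 96-well plates. Treatment: test compound, 48 hours, 5 concentrations. Analysis: linear interpolation between bracketing concentrations; unreached endpoints set to highest concentration. The concentration for full growth arrest is given as TGI.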

Legend:
Test in all cases: NCI tumour cell line growth inhibition, 48 h
[1] = system: NCI-H522 lung
[2] = system: COLO 205 colon
[3] = system: CAKI-1 renal
[4] = system: HCT-15 colon
[5] = system: SF-295 CNS
[6] = system: EKVX NSCLC
[7] = system: 786-0 renal
[8] = system: SK-MEL-2 melanoma
[9] = system: XF 498 CNS
[10] = system: HCT-116 colon
[11] = system: OVCAR-8 ovarian
[12] = system: M14 melanoma
[13] = system: SF-539 CNS
[14] = system: SNB-75 CNS
[15] = system: NCI-H226 lung
[16] = system: SNB-78 CNS
[17] = system: OVCAR-4 ovarian
[18] = system: UO-31 renal
[19] = system: M19-MEL melanoma
[20] = system: NCI-H23 lung
[21] = system: K-562 leukemia
[22] = system: MOLT-4 leukemia
[23] = system: MALME-3M melanoma
[24] = system: SF-268 CNS
[25] = system: CCRF-CEM leukemia
[26] = system: NCI-H460 lung
[27] = system: RPMI-8226 leukemia
[28] = system: TK-10 renal
[29] = system: LOX IMVI melanoma
[30] = system: OVCAR-5 ovarian
[31] = system: HT29 colon
[32] = system: HOP-62 NSCLC
[33] = system: HCC-2998 colon
[34] = system: SR leukemia
[35] = system: ACHN renal
[36] = system: UACC-62 melanoma
[37] = system: UACC-257 melanoma
[38] = system: HOP-92 NSCLC
[39] = system: DMS 273 small cell lung
[40] = system: SK-MEL-5 melanoma
[41] = system: KM12 colon
[42] = system: SW-620 colon
[43] = system: SNB-19 CNS
[44] = system: SK-MEL-28 melanoma
[45] = system: U251 CNS
[46] = system: DLD-1 colon
[47] = system: A498 renal
[48] = system: LXFL 529 NSCLC
[49] = system: IGROV1 ovarian
[50] = system: HL-60(TB) leukemia
[51] = system: A549 NSCLC
[52] = system: OVCAR-3 ovarian
[53] = system: KM20L2 colon
[54] = system: DMS 114 small cell lung
[55] = system: HOP-18 NSCLC
[56] = system: SN12C renal
[57] = system: SK-OV-3 ovarian
[58] = system: RXF-631 renal
[59] = system: RXF 393 renal

For N#Cc1nc(Nc2ccc(Cl)cc2)sc1N, which TGI [1] is on record?
The TGI was 11.3 µM.

What about the TGI [2] of the same compound?
Its TGI is 47.7 µM.

And the TGI [3]?
The TGI was 45.1 µM.

What about the TGI [4] of the same compound?
The TGI was greater than 94.6 µM.

What about the TGI [5] of the same compound?
Its TGI is 42 µM.

And the TGI [6]?
Its TGI is 83.2 µM.

What about the TGI [7] of the same compound?
The TGI was 33.7 µM.

And the TGI [8]?
The TGI was 47.3 µM.

What about the TGI [9] of the same compound?
Its TGI is greater than 100 µM.

And the TGI [10]?
Its TGI is greater than 100 µM.

What about the TGI [11] of the same compound?
Its TGI is greater than 79.4 µM.

What about the TGI [12] of the same compound?
The TGI was greater than 85.7 µM.

And the TGI [13]?
The TGI was 9.46 µM.

What about the TGI [14] of the same compound?
Its TGI is greater than 71.1 µM.

What about the TGI [15] of the same compound?
The TGI was greater than 71.7 µM.

What about the TGI [16] of the same compound?
Its TGI is greater than 100 µM.

And the TGI [17]?
The TGI was greater than 72.5 µM.

What about the TGI [18] of the same compound?
Its TGI is 26.8 µM.

What about the TGI [19] of the same compound?
The TGI was greater than 100 µM.

And the TGI [20]?
Its TGI is 13.2 µM.

What about the TGI [21] of the same compound?
Its TGI is 48.6 µM.

What about the TGI [22] of the same compound?
Its TGI is 29.2 µM.

What about the TGI [23] of the same compound?
The TGI was 66.1 µM.

And the TGI [24]?
The TGI was greater than 77.9 µM.

What about the TGI [25] of the same compound?
Its TGI is greater than 100 µM.

And the TGI [26]?
The TGI was greater than 74.7 µM.

And the TGI [27]?
Its TGI is greater than 65.6 µM.

What about the TGI [28] of the same compound?
Its TGI is greater than 76.6 µM.

What about the TGI [29] of the same compound?
The TGI was 13.7 µM.

And the TGI [30]?
The TGI was greater than 46.4 µM.

What about the TGI [31] of the same compound?
Its TGI is greater than 51.9 µM.

And the TGI [32]?
The TGI was 46 µM.

And the TGI [33]?
The TGI was 14.8 µM.

What about the TGI [34] of the same compound?
The TGI was 11.6 µM.

And the TGI [35]?
The TGI was 23.6 µM.

What about the TGI [36] of the same compound?
Its TGI is 42.8 µM.

And the TGI [37]?
Its TGI is 31.1 µM.

And the TGI [38]?
Its TGI is 52.1 µM.

And the TGI [39]?
The TGI was greater than 63.8 µM.

What about the TGI [40] of the same compound?
The TGI was 6.41 µM.

And the TGI [41]?
Its TGI is greater than 86.5 µM.

And the TGI [42]?
Its TGI is greater than 69.1 µM.

And the TGI [43]?
Its TGI is greater than 100 µM.

And the TGI [44]?
The TGI was greater than 70.8 µM.

What about the TGI [45] of the same compound?
Its TGI is 34.1 µM.

And the TGI [46]?
Its TGI is greater than 100 µM.

And the TGI [47]?
Its TGI is 56 µM.

And the TGI [48]?
The TGI was 22.7 µM.

And the TGI [49]?
The TGI was greater than 88.9 µM.

And the TGI [50]?
The TGI was greater than 76.7 µM.

What about the TGI [51] of the same compound?
Its TGI is greater than 67.1 µM.

What about the TGI [52] of the same compound?
Its TGI is greater than 61.8 µM.

What about the TGI [53] of the same compound?
The TGI was greater than 52 µM.

And the TGI [54]?
The TGI was 73.7 µM.

And the TGI [55]?
The TGI was greater than 100 µM.

What about the TGI [56] of the same compound?
Its TGI is greater than 69.1 µM.

What about the TGI [57] of the same compound?
The TGI was greater than 100 µM.

For NC(N)=NCCCC(NCc1c2ccccc2[n+]([O-])c2ccccc12)C(=O)O (centres undefined), which TGI [1] is on record?
The TGI was greater than 100 µM.

What about the TGI [2] of the same compound?
The TGI was greater than 100 µM.

What about the TGI [3] of the same compound?
Its TGI is greater than 100 µM.

And the TGI [4]?
Its TGI is greater than 100 µM.

What about the TGI [5] of the same compound?
Its TGI is greater than 100 µM.

What about the TGI [6] of the same compound?
The TGI was greater than 100 µM.

What about the TGI [7] of the same compound?
Its TGI is greater than 100 µM.

And the TGI [8]?
Its TGI is greater than 100 µM.

What about the TGI [10] of the same compound?
The TGI was greater than 100 µM.

And the TGI [11]?
The TGI was greater than 100 µM.

And the TGI [12]?
The TGI was greater than 100 µM.

And the TGI [14]?
The TGI was 88.7 µM.

What about the TGI [15] of the same compound?
Its TGI is greater than 100 µM.

And the TGI [16]?
The TGI was greater than 100 µM.

What about the TGI [17] of the same compound?
The TGI was greater than 100 µM.

What about the TGI [18] of the same compound?
Its TGI is 89.8 µM.

And the TGI [20]?
Its TGI is greater than 100 µM.

And the TGI [21]?
Its TGI is greater than 100 µM.

And the TGI [22]?
Its TGI is greater than 100 µM.

And the TGI [23]?
Its TGI is greater than 100 µM.

What about the TGI [24] of the same compound?
The TGI was greater than 100 µM.

What about the TGI [25] of the same compound?
Its TGI is 83.3 µM.

And the TGI [26]?
Its TGI is greater than 100 µM.

What about the TGI [27] of the same compound?
Its TGI is 96.2 µM.

And the TGI [28]?
The TGI was greater than 100 µM.

What about the TGI [29] of the same compound?
The TGI was greater than 100 µM.

And the TGI [30]?
The TGI was greater than 100 µM.

What about the TGI [31] of the same compound?
The TGI was greater than 100 µM.

What about the TGI [32] of the same compound?
Its TGI is greater than 100 µM.

What about the TGI [33] of the same compound?
The TGI was greater than 100 µM.

What about the TGI [58] of the same compound?
The TGI was greater than 100 µM.

And the TGI [35]?
The TGI was greater than 100 µM.

What about the TGI [36] of the same compound?
The TGI was greater than 100 µM.

And the TGI [37]?
The TGI was greater than 100 µM.

What about the TGI [39] of the same compound?
The TGI was greater than 100 µM.

And the TGI [40]?
The TGI was greater than 100 µM.

And the TGI [41]?
The TGI was greater than 100 µM.

And the TGI [42]?
The TGI was greater than 100 µM.

What about the TGI [43] of the same compound?
The TGI was greater than 100 µM.

What about the TGI [44] of the same compound?
Its TGI is greater than 100 µM.

And the TGI [45]?
The TGI was greater than 100 µM.

What about the TGI [46] of the same compound?
Its TGI is greater than 100 µM.

What about the TGI [47] of the same compound?
The TGI was greater than 100 µM.

And the TGI [48]?
Its TGI is greater than 100 µM.

And the TGI [49]?
Its TGI is greater than 100 µM.

What about the TGI [50] of the same compound?
Its TGI is 58.7 µM.

What about the TGI [51] of the same compound?
Its TGI is greater than 100 µM.

And the TGI [52]?
The TGI was greater than 100 µM.

What about the TGI [53] of the same compound?
The TGI was greater than 100 µM.

And the TGI [54]?
Its TGI is greater than 100 µM.

What about the TGI [55] of the same compound?
The TGI was greater than 100 µM.

What about the TGI [56] of the same compound?
Its TGI is greater than 100 µM.

And the TGI [57]?
Its TGI is greater than 100 µM.

What does the source list for O=c1[nH]c(=O)n(C2OC(CO)C(O)C2O)cc1OCc1ccccc1 (centres undefined)?
TGI [1]: > 100 µM; TGI [2]: > 85.2 µM; TGI [3]: > 100 µM; TGI [4]: > 77.7 µM; TGI [5]: > 100 µM; TGI [6]: > 100 µM; TGI [7]: > 100 µM; TGI [8]: > 100 µM; TGI [9]: > 100 µM; TGI [10]: > 83.2 µM; TGI [11]: > 100 µM; TGI [12]: > 100 µM; TGI [13]: > 100 µM; TGI [14]: > 100 µM; TGI [15]: > 100 µM; TGI [16]: > 100 µM; TGI [17]: > 100 µM; TGI [18]: > 100 µM; TGI [19]: > 100 µM; TGI [20]: > 100 µM; TGI [21]: > 100 µM; TGI [22]: > 100 µM; TGI [23]: > 100 µM; TGI [24]: > 100 µM; TGI [25]: > 78.1 µM; TGI [26]: > 100 µM; TGI [27]: > 73.3 µM; TGI [28]: > 100 µM; TGI [29]: > 31.6 µM; TGI [30]: > 100 µM; TGI [31]: > 100 µM; TGI [32]: > 100 µM; TGI [33]: > 100 µM; TGI [34]: > 67.5 µM; TGI [58]: > 100 µM; TGI [35]: > 100 µM; TGI [36]: > 100 µM; TGI [37]: > 100 µM; TGI [38]: > 100 µM; TGI [39]: > 100 µM; TGI [40]: > 100 µM; TGI [41]: > 100 µM; TGI [59]: > 83.5 µM; TGI [42]: > 71.8 µM; TGI [43]: > 100 µM; TGI [44]: > 100 µM; TGI [45]: > 72.2 µM; TGI [46]: > 78 µM; TGI [47]: > 100 µM; TGI [48]: > 100 µM; TGI [49]: > 100 µM; TGI [50]: > 68.6 µM; TGI [51]: > 100 µM; TGI [52]: > 100 µM; TGI [53]: > 100 µM; TGI [54]: > 72.2 µM; TGI [55]: > 100 µM; TGI [56]: > 100 µM; TGI [57]: > 100 µM
